Our source for the inhibition values is patent US20260184663A1, “INDENE COMPOUNDS, PHARMACEUTICAL COMPOSITIONS THEREOF, AND THEIR THERAPEUTIC APPLICATIONS” (NucMito Pharmaceuticals co. Ltd., priority 2022, published 2026).

For orientation: inhibition means the share of the control response that was lost under treatment.

What all share (format): cell-based
Test [1] deals with A549 (lung adenocarcinoma). The experiment in a line: Antiproliferative activity (CCK-8 cell viability), A549. The note with it: Homo sapiens, 72 h, read-out: Antiproliferative activity in cancerous cells, A549 (inhibition of cell growth); for inhibition at 3.3 µM: Compound concentration: 3.3 μM; for inhibition at 10 µM: Compound concentration: 10 μM. In a few lines:
(§1)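 Growth inhibition graded in bands from percent viability against DMSO vehicle, read as CCK-8 absorbance at 450 nm. Compound tested at 3.3, 10 or 30 μM for 72 h, 37 °C; media contained 10% FBS: DMEM for HepG2/SW480, MEM for HeLa, F-12K for A549.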

Another test has as its system HepG2 (liver cancer). The experiment in a line: Antiproliferative activity (CCK-8 cell viability), HepG2. The following applies: Homo sapiens, 72 h, read-out: Antiproliferative activity in cancerous cells, HepG2 (inhibition of cell growth); for inhibition at 3.3 µM: Compound concentration: 3.3 μM; for inhibition at 10 µM: Compound concentration: 10 μM. In a few lines:
as §1

The next test has as its system SW480 (colon cancer). The experiment in a line: Antiproliferative activity (CCK-8 cell viability), SW480. The following applies: Homo sapiens, 72 h, read-out: Antiproliferative activity in cancerous cells, SW480 (inhibition of cell growth); for inhibition at 3.3 µM: Compound concentration: 3.3 μM; for inhibition at 10 µM: Compound concentration: 10 μM. The procedure, abridged: as §1

A further test relates to HeLa (cervical cancer). As to the kind of experiment: Antiproliferative activity (CCK-8 cell viability), HeLa. The note with it: Homo sapiens, 72 h, read-out: Antiproliferative activity in cancerous cells, HELA (inhibition of cell growth); for inhibition at 3.3 µM: Compound concentration: 3.3 μM; for inhibition at 10 µM: Compound concentration: 10 μM. In a few lines: as §1

In test [2] the test system is B16F10 (malignant melanoma). As to the kind of experiment: Antiproliferative activity (CCK-8 cell viability), B16F10. The following applies: Mus musculus, 72 h, read-out: Antiproliferative activity in cancerous cells, B16F10 (inhibition of cell growth); for inhibition at 3.3 µM: B16-F10, Compound concentration: 3.3 μM; for inhibition at 10 µM: B16-F10, Compound concentration: 10 μM. The procedure, abridged: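 Cell growth inhibition was measured in B16F10 malignant melanoma cells with a Cell Counting Kit-8 viability assay. Cells were maintained in DMEM plus 10% fetal bovine serum, seeded at 2,000-5,000 cells/well in 96-well plates, and treated for 72 h at 37° C. Viability was expressed relative to DMSO-treated vehicle control wells.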

Test [3] deals with MDA-MB-231 (breast cancer). As to the kind of experiment: Antiproliferative activity (CCK-8 cell viability), MDA-MB-231. The note with it: Homo sapiens, 72 h, read-out: Antiproliferative activity in cancerous cells, MDA-MB-231 (inhibition of cell growth); for inhibition at 3.3 µM: Compound concentration: 3.3 μM; for inhibition at 10 µM: Compound concentration: 10 μM. In a few lines:
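Growth inhibition of human MDA-MB-231 breast cancer cells was assessed with a Cell Counting Kit-8. Cells cultured in DMEM plus 10% FBS were seeded at 2,000-5,000 cells/well, treated after attachment, and kept 72 h at 37° C. CCK-8 solution (10 μL) was added for 4 h, and absorbance at 450 nm was compared with DMSO-treated controls.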

Test [4] deals with A431 (epidermoid carcinoma). The experiment in a line: Antiproliferative activity (CCK-8 cell viability), A431. The note with it: Homo sapiens, 72 h, read-out: Antiproliferative activity in cancerous cells, A431 (inhibition of cell growth); for inhibition at 3.3 µM: A-431, Compound concentration: 3.3 μM; for inhibition at 10 µM: A-431, Compound concentration: 10 μM. The procedure, abridged: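 This growth inhibition assay used A431 cells maintained in Dulbecco's modified Eagle's medium plus 10% fetal bovine serum. Cells were seeded in 96-well plates, treated with compound for 72 h at 37° C., and then given 10 μL CCK-8 solution. After a further 4 h, absorbance was read at 450 nm.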

Turning to `CCc1ccc(Oc2ccc(/C=C3/C(C)=C(CC(=O)O)c4cc(Cl)ccc43)cc2)cc1` [C85, (Z)-2-(5-Chloro-1-(4-(4-ethylphenoxy)benzylidene)-2-methyl-1H-inden-3-yl)acetic acid], the inhibition at 3.3 µM in test [1] was less than 30%; in the test with HepG2 (liver cancer) it was no less than 50%; in the test on SW480 (colon cancer), less than 30%; in the test with HeLa (cervical cancer) it was no less than 50%; in test [2] it was 30 to 50%; in test [3] it was no less than 50%. Moreover, the inhibition at 3.3 µM in test [4] was no less than 50%. Besides, the inhibition at 10 µM (in test [1]; with HepG2 (liver cancer); with SW480 (colon cancer); in the test on HeLa (cervical cancer); in test [2]; in test [3]) was no less than 50% throughout. For the same compound, the inhibition at 10 µM in test [4] was no less than 50%.

On to `COc1ccc(COCc2ccc(/C=C3/C(C)=C(CC(=O)O)c4cc(F)ccc43)cc2)cc1Cl` [B108, (Z)-2-(1-(4-(((3-Chloro-4-methoxybenzyl)oxy)methyl)benzylidene)-5-fluoro-2-methyl-1H-inden-3-yl)acetic acid], for which the inhibition at 3.3 µM in test [1] is 30 to 50%; with HepG2 (liver cancer), less than 30%; in the test with SW480 (colon cancer), less than 30%; in the test on HeLa (cervical cancer), 30 to 50%; in test [2], 30 to 50%; in test [3], no less than 50%. For the same compound, the inhibition at 3.3 µM in test [4] lay in the range of 30 to 50%. The inhibition at 10 µM (in test [1]; in the test on HepG2 (liver cancer); in the test on SW480 (colon cancer); with HeLa (cervical cancer); in test [2]; in test [3]) was no less than 50% throughout. Besides, the inhibition at 10 µM in test [4] is no less than 50%.

With `CC1=C(CC(=O)O)c2cc(Cl)ccc2/C1=C\c1cccc(Oc2ccc(C(F)(F)F)cc2)c1` [C105, (Z)-2-(5-Chloro-2-methyl-1-(3-(4-(trifluoromethyl)phenoxy)benzylidene)-1H-inden-3-yl)acetic acid], the inhibition at 3.3 µM (in test [1]; in the test on HepG2 (liver cancer); with SW480 (colon cancer); in the test on HeLa (cervical cancer); in test [2]; in test [3]) was no less than 50% each time. Moreover, the inhibition at 3.3 µM in test [4] was no less than 50%. Also, the inhibition at 10 µM (in test [1]; in the test with HepG2 (liver cancer); in the test on SW480 (colon cancer); with HeLa (cervical cancer); in test [2]; in test [3]) was no less than 50% throughout. The inhibition at 10 µM in test [4] was no less than 50%.

`CC1=C(CC(=O)O)c2cc(F)ccc2/C1=C\c1ccc(COCc2ccc(F)c(Cl)c2)cc1` [B106, (Z)-2-(1-(4-(((3-Chloro-4-fluorobenzyl)oxy)methyl)benzylidene)-5-fluoro-2-methyl-1H-inden-3-yl)acetic acid]: the inhibition at 3.3 µM in test [1] was 30 to 50%; in the test on HepG2 (liver cancer) it was less than 30%; with SW480 (colon cancer), no less than 50%; in the test on HeLa (cervical cancer), no less than 50%; in test [2], less than 30%; in test [3], no less than 50%. For the same compound, in test [4], the inhibition at 3.3 µM was in the range of 30 to 50%. Further, the inhibition at 10 µM (in test [1]; with HepG2 (liver cancer); in the test with SW480 (colon cancer); in the test with HeLa (cervical cancer); in test [2]; in test [3]) was no less than 50% in each case. Further, the inhibition at 10 µM in test [4] was no less than 50%.

Regarding `CC1=C(CC(=O)O)c2cc(Cl)ccc2/C1=C\c1ccc(Oc2ccc(C(C)C)cc2)cc1` [C84, (Z)-2-(5-Chloro-1-(4-(4-isopropylphenoxy)benzylidene)-2-methyl-1H-inden-3-yl)acetic acid], the inhibition at 3.3 µM (in test [1]; with HepG2 (liver cancer); in the test on SW480 (colon cancer); in the test on HeLa (cervical cancer); in test [2]; in test [3]) was no less than 50% throughout. For the same compound, in test [4], the inhibition at 3.3 µM was no less than 50%. The inhibition at 10 µM (in test [1]; in the test on HepG2 (liver cancer); in the test on SW480 (colon cancer); with HeLa (cervical cancer); in test [2]; in test [3]) was no less than 50% throughout. Further, the inhibition at 10 µM in test [4] is no less than 50%.

Turning to `CC1=C(CC(=O)O)c2cc(F)ccc2/C1=C\c1cccc(S(=O)(=O)c2ccc(F)cc2)c1` [C44, (Z)-2-(5-Fluoro-1-(3-((4-fluorophenyl)sulfonyl)benzylidene)-2-methyl-1H-inden-3-yl)acetic acid], the inhibition at 3.3 µM in test [1] is less than 30%; in the test on HepG2 (liver cancer) it was less than 30%; in the test on SW480 (colon cancer) it was less than 30%; in the test with HeLa (cervical cancer), less than 30%; in test [2] it was less than 30%; in test [3], no less than 50%. Further, the inhibition at 3.3 µM in test [4] was no less than 50%. Besides, the inhibition at 10 µM is 30 to 50% in test [1]; no less than 50% with HepG2 (liver cancer); 30 to 50% in the test on SW480 (colon cancer); no less than 50% with HeLa (cervical cancer); 30 to 50% in test [2]; no less than 50% in test [3]. In addition, in test [4], the inhibition at 10 µM is 30 to 50%.

For the compound `CC1=C(CC(=O)O)c2cc(Cl)c(Cl)cc2/C1=C\c1ccc(Oc2ccc(F)cc2)cc1` [C83, (Z)-2-(5,6-Dichloro-1-(4-(4-fluorophenoxy)benzylidene)-2-methyl-1H-inden-3-yl)acetic acid], the inhibition at 3.3 µM in test [1] is no less than 50%; with HepG2 (liver cancer) it was less than 30%; in the test with SW480 (colon cancer), no less than 50%; in the test with HeLa (cervical cancer), no less than 50%; in test [2] it was no less than 50%; in test [3] it was no less than 50%. For the same compound, the inhibition at 3.3 µM in test [4] was no less than 50%. The inhibition at 10 µM (in test [1]; in the test on HepG2 (liver cancer); with SW480 (colon cancer); in the test on HeLa (cervical cancer); in test [2]; in test [3]) was no less than 50% each time. In addition, in test [4], the inhibition at 10 µM was no less than 50%.

As for `COc1ccc2c(c1)C(CC(=O)O)=C(C)/C2=C/c1ccc(Oc2ccc(Cl)cc2)cc1C` [C74, (Z)-2-(1-(4-(4-Chlorophenoxy)-2-methylbenzylidene)-5-methoxy-2-methyl-1H-inden-3-yl)acetic acid], the inhibition at 3.3 µM was 30 to 50% in test [1]; less than 30% with HepG2 (liver cancer); less than 30% in the test with SW480 (colon cancer); less than 30% in the test with HeLa (cervical cancer); no less than 50% in test [2]; no less than 50% in test [3]. Also, the inhibition at 3.3 µM in test [4] was no less than 50%. The inhibition at 10 µM in test [1] is no less than 50%; in the test on HepG2 (liver cancer), no less than 50%; in the test on SW480 (colon cancer) it was 30 to 50%; in the test on HeLa (cervical cancer), no less than 50%; in test [2], no less than 50%; in test [3], no less than 50%. The inhibition at 10 µM in test [4] was no less than 50%.
